Assay results reported in patent US10538567B2, “Compounds as peptidic trigonal GLP1/glucagon/GIP receptor agonists” (priority 2016, dated 2020).
Numbered stars: 1 amine (or outer) side, 2 acyl side, 3 side chain; on linkers, the order of the positions; unused ones are H or OH. Square brackets hold non-standard residues; d marks the D form. Side chains are listed from the residue outwards. Peptide text beside a SMILES is read from it. * marks the point of attachment. γGlu = O=C(O)[C@H](CCC(=O)[*:2])N[*:1]; Stearoyl = CCCCCCCCCCCCCCCCCC(=O)*; Palmitoyl = CCCCCCCCCCCCCCCC(=O)*; Aib = CC(C)(N)C(=O)O

Tested on: not listed separately
Experiment: Thioflavin T (ThT) assay for physical stability (fibrillation)
Assay type: physicochemical
Settings: 3 mg/ml, 100 mM acetate pH 4.5 with m-cresol, 37° C. shaking
Excerpt: Low physical stability of a peptide solution may lead to amyloid fibril formation, which is observed as well-ordered, thread-like macromolecular structures in the sample, which eventually may lead to gel formation. Thioflavin T (ThT) is widely used to visualize and quantify the presence of misfolded protein aggregates. [Biancalana et al. (2010) Biochimica et Biophysica Acta. 1804 (7): 1405-1412]. […] Enzymol. 309, 274-284]. The time course for fibril formation often follows the characteristic shape of a sigmoidal curve and can be separated into three regions: a lag phase, a fast growth phase, and a plateau phase.
The typical fibril formation process starts with the lag phase in which the amount of partially folded peptide turned into fibrils is not significant enough to be detected. The lag-time corresponds to the time the critical mass of the nucleus is built. Afterwards, a drastic elongation phase follows and fibril concentration increases rapidly.
Investigations were carried out to determine fibrillation tendencies under stress conditions by shaking at 37° C. within Fluoroskan Ascent FL.
For the tests in Fluoroskan Ascent FL, 200 μL sample were placed into a 96 well mictrotiter plate PS, flat bottom, Greiner Fluotrac No. 655076. Plates were sealed with Scotch Tape (Quiagen). Samples were stressed by continuous cycles of 10 s shaking at 960 rpm and 50 s rest period at 37° C. The kinetic was monitored by measuring fluorescence intensity every 20 minutes.
Peptides were diluted in a buffer system to a final concentration of 3 mg/ml. 20 μL of a 10.1 mM ThT solution in H2O were added to 2 mL of peptide solution to receive a final concentration of 100 μM ThT. For each sample eight replicates were tested.
Tht buffer system A) 100 mM Acetate pH 4.5 including m-cresol (100 mM Natriumacetat trihydrat, pH adjustment using 2N CH3COOH, 2.7 mg/mL m-cresol) Tht buffer system B) 100 mM citrate buffer pH 6.0
Lag time in hours in Thioflavin T (ThT) assay of peptide samples was determined in ThT buffer system A as described in Methods.

SMILES | Lag time before increase
CCCCCCCCCCCCCCCC(=O)N[C@@H](CCC(=O)NCCCC[C@H](NC(=O)[C@H](CC(C)C)NC(=O)[C@H](CCCCN)NC(=O)[C@H](CO)NC(=O)[C@H](CC(C)C)NC(=O)[C@H](CC(=O)O)NC(=O)[C@H](CO)NC(=O)[C@@H](NC(=O)[C@H](Cc1ccccc1)NC(=O)[C@@H](NC(=O)CNC(=O)[C@H](Cc1c[nH]cn1)NC(=O)C(C)(C)NC(=O)[C@@H](N)Cc1c[nH]cn1)[C@@H](C)O)[C@@H](C)O)C(=O)N[C@@H](CCC(=O)O)C(=O)N[C@@H](CCC(=O)O)C(=O)N[C@@H](CCC(N)=O)C(=O)N[C@@H](CCCNC(=N)N)C(=O)N[C@@H](CCC(N)=O)C(=O)NC(C)(C)C(=O)N[C@@H](CCC(=O)O)C(=O)N[C@@H](Cc1ccccc1)C(=O)N[C@H](C(=O)N[C@@H](CCC(=O)O)C(=O)N[C@@H](Cc1c[nH]c2ccccc12)C(=O)N[C@@H](CC(C)C)C(=O)N[C@@H](CCCCN)C(=O)N[C@@H](C)C(=O)N[C@H](C)C(=O)NCC(=O)N1CCC[C@H]1C(=O)N1CCC[C@H]1C(=O)N[C@@H](CO)C(=O)NC(C)(C)C(=O)N[C@@H](CCCCN)C(=O)N1CCC[C@H]1C(=O)N1CCC[C@H]1C(=O)N1CCC[C@H]1C(=O)N[C@@H](CCCCN)C(N)=O)[C@@H](C)CC)C(=O)O [SEQ ID NO: 16, H-Aib-H-G-T-F-T-S-D-L-S-K-L-K[gGlu-Palm]-E-E-Q-R-Q-Aib-E-F-I-E-W-L-K-A-dAla-G-P-P-S-Aib-K-P-P-P-K-NH2] (H-H[Aib]HGTFTSDLSKLK([γGlu-Palmitoyl])EEQRQ[Aib]EFIEWLKA[dA]GPPS[Aib]KPPPK-NH2) | >45 h
CCCCCCCCCCCCCCCCCC(=O)N[C@@H](CCC(=O)NCCCC[C@H](NC(=O)[C@H](CC(C)C)NC(=O)[C@H](CCCCN)NC(=O)[C@H](CO)NC(=O)[C@H](CC(C)C)NC(=O)[C@H](CC(=O)O)NC(=O)[C@H](CO)NC(=O)[C@@H](NC(=O)[C@H](Cc1ccccc1)NC(=O)[C@@H](NC(=O)CNC(=O)[C@H](Cc1c[nH]cn1)NC(=O)C(C)(C)NC(=O)[C@@H](N)Cc1c[nH]cn1)[C@@H](C)O)[C@@H](C)O)C(=O)N[C@@H](CCC(=O)O)C(=O)N[C@@H](CCC(=O)O)C(=O)N[C@@H](CCC(N)=O)C(=O)N[C@@H](CCCNC(=N)N)C(=O)N[C@@H](CCC(N)=O)C(=O)NC(C)(C)C(=O)N[C@@H](CCC(=O)O)C(=O)N[C@@H](Cc1ccccc1)C(=O)N[C@H](C(=O)N[C@@H](CCC(=O)O)C(=O)N[C@@H](Cc1c[nH]c2ccccc12)C(=O)N[C@@H](CC(C)C)C(=O)N[C@@H](CCCCN)C(=O)N[C@@H](C)C(=O)N[C@H](C)C(=O)NCC(=O)N1CCC[C@H]1C(=O)N1CCC[C@H]1C(=O)N[C@@H](CO)C(=O)NC(C)(C)C(=O)N[C@@H](CCCCN)C(=O)N1CCC[C@H]1C(=O)N1CCC[C@H]1C(=O)N1CCC[C@H]1C(=O)N[C@@H](CCCCN)C(N)=O)[C@@H](C)CC)C(=O)O [SEQ ID NO: 17, H-Aib-H-G-T-F-T-S-D-L-S-K-L-K[gGlu-Stea]-E-E-Q-R-Q-Aib-E-F-I-E-W-L-K-A-dAla-G-P-P-S-Aib-K-P-P-P-K-NH2] (H-H[Aib]HGTFTSDLSKLK([γGlu-Stearoyl])EEQRQ[Aib]EFIEWLKA[dA]GPPS[Aib]KPPPK-NH2) | >45 h

Tested on: female diabetic db/db mice
Experiment: Acute effects after s.c. treatment on blood glucose in non-fasting female diabetic db/db mice
Assay type: in vivo
Settings: single 30 μg/kg s.c.
Protocol: Female healthy, lean BKS.Cg-(lean)/OlaHsd and diabetes-prone, obese BKS.Cg-+Lepr^db/+Lepr^db/OlaHsd mice were ordered group housed from Envigo RMS Inc., shipped group housed and remained group housed in shoebox caging with wood chip bedding until day 15 of the predose phase. At the study start mice were approximately 12 weeks old.
Mice were housed under vivarium conditions including a 12 h light/dark cycle (light phase 04:00 AM-4:00 PM), room temperatures between 23-26° C. and a relative humidity between 30-70%. All animals had free access to water and Purina Fomulab Diet 5008.
On predose day 9 blood glucose and body mass (approximately between 08:00-10:00 AM) as well as HbA1c measurements were performed. On day 15 of the predose phase animals were assigned to treatment groups (n=8) and to new cages to match mean HbA1c and body masses between all db/db groups. An age-matched lean group was included in the study as a healthy, lean reference.
Prior to day 1 of the dosing phase, the test article was diluted with Phosphate Buffered Saline (PBS, Gibco, without CaCl2 and MgCl2) to a concentration of 1 mg/mL and aliquots of this stock solution were stored at approximately ≤−60° C. On day 1 of the dosing phase the stock aliquot was thawed and the injected test article solution was prepared fresh by diluting it with PBS to achieve the desired concentration.
On Day 1 of the dosing phase db/db mice were either treated once with a s.c. injection of PBS-vehicle or 30 μg/kg test article. The lean reference group was treated once with a s.c. injection of PBS-vehicle. The dosing was initiated and completed between 08:00 and 10:00 AM. The applied volume was 5 ml/kg and the dose was adjusted to the most recent body mass recording of each individual.
Animals had unlimited access to water and feed during the experiment. On day 1 of the dosing phase approximately 5 μL of blood were collected via tail clips at minute −30 and 0 prior to any other inlife activities. At minute 0 mice received a s.c. dose of either PBS-vehicle or 30 μg/kg test article. Further blood samples were harvested at hour 0.25, 0.5, 1, 1.5, 2, 3, 4, 6, 8, and 24 post-dose. Glucose measurements were performed in whole blood using AlphaTRAK glucometers. If the glucose concentrations of two measurements differed by more than 20 mg/dL a third value was recorded. The Area Under the Curve (AUC) for blood glucose was calculated via the trapezoid method and for the duration of the 24 post-dose hours.
In the Figures data are depicted as means±SEM. […] A One Way Analysis of Variance and multiple comparisons (Dunnett's Method) were performed comparing the group of diabetic, obese db/db vehicle mice (n=8) with each diabetic, obese db/db test article treated mice (n=8). […] Non-diabetic, lean-vehicle group data are depicted in the Figures serving as a reference dataset for the non-obese, non-diabetic state.

SMILES | mean blood glucose concentration 24 hours post-dose relative to baseline
CCCCCCCCCCCCCCCC(=O)N[C@@H](CCC(=O)NCCCC[C@H](NC(=O)[C@H](CC(C)C)NC(=O)[C@H](CCCCN)NC(=O)[C@H](CO)NC(=O)[C@H](CC(C)C)NC(=O)[C@H](CC(=O)O)NC(=O)[C@H](CO)NC(=O)[C@@H](NC(=O)[C@H](Cc1ccccc1)NC(=O)[C@@H](NC(=O)CNC(=O)[C@H](Cc1c[nH]cn1)NC(=O)C(C)(C)NC(=O)[C@@H](N)Cc1c[nH]cn1)[C@@H](C)O)[C@@H](C)O)C(=O)N[C@@H](CCC(=O)O)C(=O)N[C@@H](CCC(=O)O)C(=O)N[C@@H](CCC(N)=O)C(=O)N[C@@H](CCCNC(=N)N)C(=O)N[C@@H](CCC(N)=O)C(=O)NC(C)(C)C(=O)N[C@@H](CCC(=O)O)C(=O)N[C@@H](Cc1ccccc1)C(=O)N[C@H](C(=O)N[C@@H](CCC(=O)O)C(=O)N[C@@H](Cc1c[nH]c2ccccc12)C(=O)N[C@@H](CC(C)C)C(=O)N[C@@H](CCCCN)C(=O)N[C@@H](C)C(=O)N[C@H](C)C(=O)NCC(=O)N1CCC[C@H]1C(=O)N1CCC[C@H]1C(=O)N[C@@H](CO)C(=O)NC(C)(C)C(=O)N[C@@H](CCCCN)C(=O)N1CCC[C@H]1C(=O)N1CCC[C@H]1C(=O)N1CCC[C@H]1C(=O)N[C@@H](CCCCN)C(N)=O)[C@@H](C)CC)C(=O)O [SEQ ID NO: 16, H-Aib-H-G-T-F-T-S-D-L-S-K-L-K[gGlu-Palm]-E-E-Q-R-Q-Aib-E-F-I-E-W-L-K-A-dAla-G-P-P-S-Aib-K-P-P-P-K-NH2] (H-H[Aib]HGTFTSDLSKLK([γGlu-Palmitoyl])EEQRQ[Aib]EFIEWLKA[dA]GPPS[Aib]KPPPK-NH2) | at or close to baseline
